Literature values in US10272130B1, “Oral anaerobic glutathione supplement in liposome suspension” (priority 2017, dated 2019).

Assays:
[1] = in vivo

half-life [1]: approximately 5.6 hours
renally excreted by the body [1]: 30%
pregnancy risk category (in vivo): category B
SMILES: CC(=O)N[C@@H](CS)C(=O)O [NAC, N-acetylcysteine]
adverse effects associated with administration (orally administered or inhaled): drowsiness, stomatitis, clamminess, rhinorrhea, and hemoptysis
